We go through 1 compound from patent US20080255238A1, “COMPOSITION CONTAINING A THIOUREA DERIVATIVE FOR PREVENTING OR TREATING PRURITIC OR IRRITANT SKIN DISEASES” (AMOREPACIFIC CORPORATION, priority 2004, published 2008).

Format in all cases: in vivo
Assay [1] relates to ICR mice. The experiment in a line: Inhibition of skin irritation induced by tacrolimus in ICR mice. The conditions noted are these: intradermal; for % Inhibition (mean ± SE): scratching frequency over 30 min, tacrolimus 50 μg/mouse i.d. An excerpt:
Inhibition of Skin Irritation Induced by Tacrolimus in ICR Mice
Subcutaneous Administration
Tacrolimus is an immunosuppressant widely used in liver and renal transplantation (Lawrence, 1998, Dermatol. Ther., 5, pp 74-84). Tacrolimus is currently used in the form of ointment for treating skin diseases, such as atopic dermatitis (Wollenberg et al., 2001, J. Allergy. Clin. Immunol., 107, pp 519-525), psoriasis (Nasr, 2000, Clin. Exp. Dermatol., 25, pp 250-254), allergic contact dermatitis (Lauerma et al., 1992, Lancet, 340, p 556), and the like. However, it was reported that tacrolimus enhances irritation in human models with irritant contact dermatitis (Fuchs et al., 2002, Contact dermatitis, 46, pp 290-294). It was reported that tacrolimus causes side effects, such as skin irritation, itching and erythema, in its initial stage of use (Gupta et al., 2002, JEADV, 16, pp 100-114; Gupta and Chow, 2003, JEADV, 17, pp 493-503). No experimental model of skin irritation by tacrolimus in animal experiments is currently known. Accordingly, tacrolimus as a skin-irritant substance was directly injected to ICR mice by intradermal injection, and then scratching behavior of the mice was observed. One day before the experiment, the rostral part of the skin on the back male ICR mice (30˜33 g, 10 mice/group) was clipped. After the drug (compound 1, 50 μl/mouse) was dissolved in 28% hydroxypropyl-β-cyclodextrin (HP-β-CD; Mitsubishi Ltd., Japan) and tacrolimus (50 μg/50 μl/mouse, Cipla, India) was dissolved in a physiological saline solution containing 5% ethanol and 5% Tween 80, the solutions were simultaneously injected intradermally into the back skin of mice. Immediately after the injection, the mice were placed in a transparent cage and then the frequency of scratching of the injected site by the hind paws was counted for 30 minutes. The frequency of scratching in test groups administered with the drug was compared to that in a group administered with tacrolimus alone. […] The decrease in the frequency of scratching was expressed as a percentage of inhibition to determine inhibitory effects of each compound on skin irritation.

Assay [2] has as its system ICR mice. The experiment in a line: Itching induced by compound 48/80 (C48/80) in ICR mice, intradermal administration. The conditions noted are these: for % Inhibition (mean ± SE): scratching frequency over 60 min, C48/80 50 μg/mouse i.d., ICR mice. An excerpt:
Itching Induced by Compound 48/80 (C48/80) in ICR Mice
Intradermal Administration
ICR mice suffer from itching upon administration of histamines, and C48/80 (condensation product of N-methyl-p-methoxyphenethylamine with formaldehyde, Sigma, U.S.A.) is a substance that stimulates connective tissues and skin mast cells to release mediators, such as histamines, causing itching. C48/80 causes itching when intradermally administered to humans (Rukwied et al., 2000, Br. J. Pharmacol., 142, pp 1114-1120). In this experiment, ICR mice received C48/80 to induce itching. One day before the experiment, the rostral part of the skin on the back of male ICR mice (28˜32 g, 4˜11 mice/group) was clipped. After the drug (compound 1, 50 μl/mouse) was dissolved in hydroxypropyl-β-cyclodextrin (HP-β-CD; Mitsubishi Ltd., Japan) and C48/80 (50 μg/50 μl/mouse) was dissolved in a physiological saline solution, the solutions were simultaneously injected intradermally into the back skin of mice. Immediately after the injection, the mice were placed in a transparent cage and then the frequency of scratching of the injected site by the hind paws was counted for 60 minutes. The frequency of scratching in test groups administered with the drug was compared to that in a control group administered with C48/80 alone. The decrease in the frequency of scratching in the test groups was determined as an index of inhibitory effects on itching. The decrease in the frequency of scratching was expressed as a percentage of inhibition to determine inhibitory effects of each compound on itching.

The subject of assay [3] is BALB/C mice. Kind of assay: Itching induced by compound 48/80 (C48/80) in BALB/C mice, oral administration. The settings on record: scratching frequency over 30 min, C48/80 1 h after dosing, BALB/C mice. An excerpt: Itching Induced by Compound 48/80 (C48/80) in BALB/C Mice
The frequency of scratching induced by an itching-inducing substance varies depending on mouse strain. For example, it was reported that BALB/C mice are less sensitive to histamines and serotonin than ICR mice (Inagaki et al., 2001, Skin Pharmacol. Appl. Skin Physiol., 14, pp 87-96). […] In this experiment, BALB/C mice received C48/80 to induce itching. One day before the experiment, the rostral part of the skin on the back of BALB/C mice (19˜21 g, 6˜12 mice/group) was clipped. After compound 1 was dissolved in HP-β-CD, and compounds 2 and 3 were dissolved in a physiological saline solution containing 10% ethanol and 10% Tween 80, the solutions were orally administered (10 ml/kg) to the mice. One hour after the administration, C48/80 (50 μg/50 μl/mouse) was dissolved in a physiological saline solution and injected intradermally into the back skin of mice. Immediately after the injection, the mice were housed in a transparent cage and then the frequency of scratching of the injected site by the hind paws was counted for 30 minutes. The frequency of scratching in test groups administered with the drugs was compared to that in a control group administered with C48/80 alone. The decrease in the frequency of scratching in the test groups was determined as an index of inhibitory effects on itching. The decrease in the frequency of scratching was expressed as a percentage of inhibition to determine inhibitory effects of each compound on itching.

With `CC(C)(C)c1ccc(CNC(=S)NCc2ccc(NS(C)(=O)=O)c(F)c2)cc1` [Compound 1, 1-(4-t-butylbenzyl)-3-(3-fluoro-4-methanesulfonylaminobenzyl)thiourea], the “% Inhibition (mean ± SE)” value in assay [1] (dose 0.1 mg/mouse) was 33.74 ± 37.73%; in assay [1] (dose 0.3 mg/mouse), 52.03 ± 24.14%; in assay [1] (dose 1 mg/mouse), 106.91 ± 30.13%; in assay [2] (dose 0.03 mg/mouse) it was −6.51 ± 17.39%; in assay [2] (dose 0.1 mg/mouse), 36.96 ± 13.44%; in assay [2] (dose 0.3 mg/mouse) it was 44.11 ± 10.36%. Further, the “% Inhibition (mean ± SE)” value in assay [2] (dose 1 mg/mouse) is listed as 69.03 ± 7.76%; in assay [3] (dose 3 mg) it was −22.90 ± 13.19%; in assay [3] (dose 10 mg), 42.24 ± 24.48%; in assay [3] (dose 30 mg), 42.97 ± 7.13%; in assay [3] (dose 100 mg), 54.11 ± 18.50%. Further, the “inhibitory effects on skin irritation (in words)” value in assay [1] (tacrolimus) is listed as “inhibitory effects on skin irritation in a dose-dependent manner”. In addition, the “inhibitory effects on itching (in words)” value in assay [2] (C48/80, ICR mice) is “potent antipruritic effects in a dose-dependent manner”.
